# Laboratory results: the supplement of paper PMC10307832
# Compound: COc1cc([C@@H]2c3cc4c(cc3[C@@H](O[C@@H]3O[C@@H]5CO[C@@H](C)O[C@H]5[C@H](O)[C@H]3O)[C@H]3COC(=O)[C@H]23)OCO4)cc(OC)c1O [Etoposide] + Nc1ncn([C@H]2C[C@H](O)[C@@H](CO)O2)c(=O)n1 [Decitabine] (partner 2 µM)
# Assay: relative viability (nuclei count vs DMSO), 5 days (fraction); higher = more cells survive
# Details: first compound 1 µM
# Outline: (§1)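 For relative viability, nuclei counts in treated wells were divided by those in vehicle wells. Lung cancer cell lines had been pin-tool dosed in 1536-well plates the day after seeding and cultured for 5 days, then fixed and stained in one step (final 0.05% Triton X-100, 1% formaldehyde, 1 ug/ml Hoechst) and imaged at 4×. Doses were one drug alone or a fixed anchor-drug dose plus five library-drug doses (not always all listed) in √10 steps, and values are duplicate-plate medians.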
row,Cell Line,relative viability
1,NCI-H322M,0.563

# Compound: COc1cc([C@@H]2c3cc4c(cc3[C@@H](O[C@@H]3O[C@@H]5CO[C@@H](C)O[C@H]5[C@H](O)[C@H]3O)[C@H]3COC(=O)[C@H]23)OCO4)cc(OC)c1O [Etoposide] + CS(=O)(=O)N1CCN(Cc2cc3nc(-c4cccc5[nH]ncc45)nc(N4CCOCC4)c3s2)CC1 [Pictilisib] (partner 1 µM)
# Assay: as above
# Details: first compound 0.01 µM
# Outline: as §1
row,Cell Line,relative viability
1,LOU-NH91,0.55
2,ChaGo-K-1,0.815
3,NCI-H2170,0.315
4,NCI-H3122,0.687
5,HOP-62,0.796
6,HCC-44,0.529
7,LU99A,0.362
8,BEN,0.477
9,HARA,0.3
10,HCC-78,0.218
11,NCI-H441,0.38
12,A-427,0.726
13,NCI-H460,0.393
14,NCI-H727,0.327
15,NCI-H1734,0.468
16,NCI-H2405,0.455
17,NCI-H1395,0.618
18,201T,0.677
19,NCI-H1915,0.934
20,HCC-827,1.03
21,LXF-289,0.807
22,NCI-H2347,0.921
23,NCI-H650,0.865
24,NCI-H1651,0.49
25,EPLC-272H,0.345
26,NCI-H23,0.433
27,NCI-H1792,0.261
28,NCI-H1355,0.492
29,NCI-H322M,0.504

# Same assay, conditions: first compound 0.03162 µM
row,Cell Line,relative viability
1,LOU-NH91,0.566
2,ChaGo-K-1,0.616
3,NCI-H2170,0.306
4,NCI-H3122,0.74
5,HOP-62,1.01
6,HCC-44,0.601
7,LU99A,0.337
8,BEN,0.62
9,HARA,0.545
10,HCC-78,0.202
11,NCI-H441,0.425
12,LCLC-97TM1,0.172
13,A-427,0.817
14,NCI-H460,0.434
15,NCI-H727,0.469
16,NCI-H1734,0.47
17,NCI-H2405,0.508
18,NCI-H1395,0.665
19,201T,0.767
20,NCI-H1915,1.14
21,HCC-827,0.878
22,LXF-289,0.849
23,NCI-H2347,0.757
24,NCI-H650,0.843
25,NCI-H1651,0.681
26,EPLC-272H,0.371
27,NCI-H23,0.487
28,NCI-H1792,0.261
29,NCI-H1355,0.552
30,NCI-H322M,0.566

# Same assay, conditions: first compound 0.1 µM
row,Cell Line,relative viability
1,LOU-NH91,0.474
2,ChaGo-K-1,0.387
3,NCI-H3122,0.387
4,HOP-62,0.321
5,HCC-44,0.531
6,LU99A,0.237
7,HARA,0.255
8,HCC-78,0.144
9,NCI-H441,0.267
10,LCLC-97TM1,0.115
11,A-427,0.507
12,NCI-H460,0.151
13,NCI-H727,0.215
14,NCI-H1734,0.266
15,NCI-H2405,0.268
16,NCI-H1395,0.591
17,201T,0.652
18,NCI-H1915,0.634
19,HCC-827,0.564
20,LXF-289,0.655
21,NCI-H2347,0.309
22,NCI-H650,0.415
23,NCI-H1651,0.436
24,EPLC-272H,0.281
25,NCI-H23,0.275
26,NCI-H1792,0.129
27,NCI-H1355,0.276
28,NCI-H322M,0.397

# Same assay, conditions: first compound 0.3162 µM
row,Cell Line,relative viability
1,LOU-NH91,0.473
2,ChaGo-K-1,0.265
3,NCI-H2170,0.336
4,NCI-H3122,0.576
5,HOP-62,0.448
6,HCC-44,0.589
7,LU99A,0.212
8,BEN,0.545
9,HARA,0.449
10,HCC-78,0.188
11,NCI-H441,0.149
12,LCLC-97TM1,0.116
13,A-427,0.469
14,NCI-H460,0.076
15,NCI-H727,0.444
16,NCI-H1734,0.341
17,NCI-H2405,0.399
18,NCI-H1395,0.551
19,201T,0.63
20,NCI-H1915,0.782
21,HCC-827,0.479
22,LXF-289,0.556
23,NCI-H2347,0.285
24,NCI-H650,0.362
25,NCI-H1651,0.178
26,EPLC-272H,0.278
27,NCI-H23,0.334
28,NCI-H1792,0.216
29,NCI-H1355,0.284
30,NCI-H322M,0.493

# Same assay, conditions: first compound 1 µM
row,Cell Line,relative viability
1,LOU-NH91,0.399
2,ChaGo-K-1,0.199
3,NCI-H2170,0.255
4,NCI-H3122,0.349
5,HOP-62,0.149
6,HCC-44,0.275
7,LU99A,0.159
8,BEN,0.376
9,HARA,0.086
10,HCC-78,0.15
11,NCI-H441,0.147
12,LCLC-97TM1,0.109
13,A-427,0.169
14,NCI-H460,0.0793
15,NCI-H727,0.35
16,NCI-H1734,0.272
17,NCI-H2405,0.315
18,NCI-H1395,0.446
19,201T,0.445
20,NCI-H1915,0.481
21,HCC-827,0.366
22,LXF-289,0.152
23,NCI-H2347,0.392
24,NCI-H650,0.221
25,NCI-H1651,0.0908
26,EPLC-272H,0.233
27,NCI-H23,0.185
28,NCI-H1792,0.147
29,NCI-H1355,0.144
30,NCI-H322M,0.384
